The record followed here is ChEMBL document CHEMBL1142141, “Molecular mechanism of flucytosine resistance in Candida lusitaniae: contribution of the FCY2, FCY1, and FUR1 genes to 5-fluorouracil and fluconazole cross-resistance” (2007).

In brackets after ≈: the same amount, converted by molar mass.

For orientation: MIC means the smallest concentration in the dilution series that meets the test's criterion for growth inhibition. The low end stands for greater potency, the high end for weaker potency.

Common to all, as to assay type: functional
Assay [1] deals with Clavispora lusitaniae. The assay can be described thus: Antifungal activity against Candida lusitaniae 6936 revertant fcy2delta::[FCY2-URA3] by microdilution assay. On the technique in general: Dilution methods test growth across graded concentrations, often in twofold steps.
For assay [2], the system named is Clavispora lusitaniae. Kind of assay: Antifungal activity against Candida lusitaniae 6936 URA3[D95V] derived null mutant fcy2delta::URA3 by microdilution assay.
For assay [3], the system named is Clavispora lusitaniae. Kind of assay: Antifungal activity against Candida lusitaniae 6936 URA3[D95V] derived null mutant fcy1delta::URA3 by microdilution assay.
The test system of assay [4] is Clavispora lusitaniae. Kind of assay: Antifungal activity against Candida lusitaniae 6936 revertant fcy1delta::[FCY1-URA3] by microdilution assay.
Assay [5] concerns Clavispora lusitaniae. The assay can be described thus: Antifungal activity against Candida lusitaniae 6936 URA3[D95V] derived null mutant fur1delta::URA3 by microdilution assay.
For assay [6], the system named is Clavispora lusitaniae. The assay can be described thus: Antifungal activity against Candida lusitaniae 6936 by microdilution assay.

As to `OC(Cn1cncn1)(Cn1cncn1)c1ccc(F)cc1F` [FLUCONAZOLE], the MIC in assay [1], in assay [2], in assay [3], in assay [4], in assay [5] and in assay [6] was 2 µg/mL (≈ 6.53 µM) throughout.
For the compound `Nc1nc(=O)[nH]cc1F` [FLUCYTOSINE], the MIC in assay [1] was at most 0.5 µg/mL; in assay [2] it was 64 µg/mL (≈ 496 µM); in assay [3] it was 128 µg/mL (≈ 992 µM); in assay [4], at most 0.5 µg/mL; in assay [5], at least 512 µg/mL; in assay [6], at most 0.5 µg/mL.
`O=c1[nH]cc(F)c(=O)[nH]1` [FLUOROURACIL]: the MIC in assay [1] is at most 0.5 µg/mL; in assay [2], at most 0.5 µg/mL; in assay [3], at most 0.5 µg/mL; in assay [4] it was at most 0.5 µg/mL; in assay [5], at least 512 µg/mL; in assay [6], at most 0.5 µg/mL.
